Key:
HDAC 6 = target: T1, HDAC 6 (Homo sapiens, UniProt Q9UBN7); assay: In vitro HDAC enzyme inhibition, fluorescent deacetylation assay (HDAC6); type: biochemical
T1 sequence (Q9UBN7 1-1215): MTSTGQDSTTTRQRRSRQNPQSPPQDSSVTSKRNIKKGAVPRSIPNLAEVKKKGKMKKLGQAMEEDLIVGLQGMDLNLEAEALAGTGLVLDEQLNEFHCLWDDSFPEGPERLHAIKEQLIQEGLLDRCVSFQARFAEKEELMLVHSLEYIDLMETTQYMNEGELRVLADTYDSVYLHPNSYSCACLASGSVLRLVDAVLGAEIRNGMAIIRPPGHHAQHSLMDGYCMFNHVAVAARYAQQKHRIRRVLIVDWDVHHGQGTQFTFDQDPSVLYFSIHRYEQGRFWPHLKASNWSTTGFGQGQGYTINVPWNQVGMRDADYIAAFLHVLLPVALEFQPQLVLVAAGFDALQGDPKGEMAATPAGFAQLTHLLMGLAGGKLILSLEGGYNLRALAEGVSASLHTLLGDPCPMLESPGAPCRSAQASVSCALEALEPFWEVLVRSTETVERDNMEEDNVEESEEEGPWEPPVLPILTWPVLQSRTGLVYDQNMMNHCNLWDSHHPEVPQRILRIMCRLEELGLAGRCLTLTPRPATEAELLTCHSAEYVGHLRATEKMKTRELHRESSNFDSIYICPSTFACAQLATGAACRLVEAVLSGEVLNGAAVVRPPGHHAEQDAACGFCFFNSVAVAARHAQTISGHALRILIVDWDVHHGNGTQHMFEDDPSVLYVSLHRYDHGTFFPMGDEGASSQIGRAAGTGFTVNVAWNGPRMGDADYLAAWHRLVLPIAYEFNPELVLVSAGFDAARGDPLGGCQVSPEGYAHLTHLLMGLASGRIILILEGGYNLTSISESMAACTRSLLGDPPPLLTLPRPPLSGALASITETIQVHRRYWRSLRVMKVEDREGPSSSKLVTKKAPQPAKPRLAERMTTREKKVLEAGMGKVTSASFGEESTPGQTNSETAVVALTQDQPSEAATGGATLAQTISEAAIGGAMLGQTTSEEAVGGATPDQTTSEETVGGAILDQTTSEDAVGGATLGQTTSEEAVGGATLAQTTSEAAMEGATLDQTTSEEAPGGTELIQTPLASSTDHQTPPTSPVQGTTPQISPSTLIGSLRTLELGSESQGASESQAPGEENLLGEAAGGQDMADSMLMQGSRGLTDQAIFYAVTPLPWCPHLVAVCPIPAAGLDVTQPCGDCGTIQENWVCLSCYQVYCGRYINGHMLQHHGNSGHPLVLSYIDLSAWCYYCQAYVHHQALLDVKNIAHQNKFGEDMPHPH
Protocol: (§1) The degree of deacetylation of the acetylated substrate was determined by detecting the changes in the intensity of the fluorescent signal in the 384-well microplate using EnVision® microplate reader, the half inhibitory comcentration IC50 value of the compound inhibitor was used as a reference to evaluate the inhibitory effect of the compound on the histone deacetylase (HDAC). The compound was diluted by DMSO to 2 mM, and then added to 384 compound plate, then the solution was diluted 3 times, 10 gradients and double duplicate wells using a Bravo automated liquid workstation; then 0.15 μL of the compound was transferred from 384 compound plate to 384 assay plate by Echo liquid handler. 1.2 configuration of the assay buffer: the configuration contains 20 mM Hepes, 137 mM NaCl, 2.7 mM KCl, 1 mM MgCl2, 0.05% BSA, 0.5 mM TCEP of 1× assay buffer, each of which is represented by final concentration thereof. The rapidly dissolving histone deacetylase was added to the 1× assay buffer and mixed well. The 1.5× enzyme mixture was added to a 20 μL to 384-well assay plate, mixed by centrifugation, placed in a 23° C. incubator, and the enzyme was incubated with the compound for 20 minutes. The 3× substrate solution was configured by 1× assay buffer, and then mixed well. 10 μL was added to a 384-well assay plate, mixed by centrifugation, and placed in a 23° C. incubator for 90 minutes for reaction. The terminating mixture of trypsin and the positive compound SAHA (Vorinostat, vorinostat) was configured with 1× assay buffer and mixed well. The reaction was terminated by adding 30 μL to a 384-well assay plate, then centrifuged, and placed in a 23° C. incubator for 60 minutes. After termination of the reaction for 60 minutes, the 384-well assay plate was placed on an Envision micro-plate reader and the fluorescence value was read. 1.7 Data analysation: the data was analyzed by using XLfit5 software to calculate the IC50 value of the compound.

HDAC 1 = HDAC 1 (Homo sapiens, UniProt Q13547); assay: In vitro HDAC enzyme inhibition, fluorescent deacetylation assay (HDAC1); type: biochemical
Chain of HDAC 1 (Q13547 whole entry, species assumed): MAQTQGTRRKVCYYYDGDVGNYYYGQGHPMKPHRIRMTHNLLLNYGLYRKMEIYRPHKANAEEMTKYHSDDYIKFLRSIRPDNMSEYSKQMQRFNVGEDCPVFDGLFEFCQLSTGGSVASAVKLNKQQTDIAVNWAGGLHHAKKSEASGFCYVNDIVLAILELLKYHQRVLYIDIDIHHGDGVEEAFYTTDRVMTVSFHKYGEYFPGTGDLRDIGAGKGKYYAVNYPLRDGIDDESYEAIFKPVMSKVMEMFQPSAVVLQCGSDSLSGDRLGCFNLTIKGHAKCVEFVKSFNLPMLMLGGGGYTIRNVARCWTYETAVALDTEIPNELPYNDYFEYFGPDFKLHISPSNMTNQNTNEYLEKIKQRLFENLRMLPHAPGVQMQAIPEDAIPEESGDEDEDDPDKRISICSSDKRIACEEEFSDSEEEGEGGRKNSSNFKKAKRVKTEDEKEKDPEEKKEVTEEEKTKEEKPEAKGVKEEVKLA
Protocol: as §1

[1] = Pharmacokinetic evaluation in male beagle dogs; type: in vivo; conditions: plasma, male beagle dog
Protocol: Purpose of the experiment: test the compound's pharmacokinetics in male beagle dogs
Experimental materials: Beagle (male, 6-15 kg, 6 months-4 age, Marshall Bioresources, Beijing, China)
The Beagle's pharmacokinetic characteristics after oral administration of the compound were tested by a standard scheme. In the experiment, the candidate compound was formulated into a uniform suspension and administered to a beagle dog for single oral administration. Oral menstruum was formed by a certain proportion of polyethylene glycol-polyoxyethylene castor oil aqueous solution. Blood samples within 24 hours was collected, then centrifuged at 3000 g for 10 minutes, the supernatant was separated to obtain plasma samples, 30 μL of plasma samples was added into 300 μL of internal standard acetonitrile solution to precipitate protein, 30 μL of supernatant was obtained after vortex and centrifugation, and then equal volume of water was added, followed by vortex and centrifugation for another time to collect the supernatant, and the plasma concentration was quantitatively analyzed by LC-MS/MS analysis, and the pharmacokinetic parameters such as peak concentration, peak-reached time, half-life, and area under the administrating curve were calculated.

Row | IC50 (HDAC 6) [nM] | IC50 (HDAC 1) [nM] | half-life ([1]; oral, read-out: Half-life T1/2 (converted)) [h] | AUC ([1]; single oral administration, read-out: Integrated concentration AUC) [µM·h] | bioavailability ([1]; single oral administration, read-out: bioavailability F (%)) [%] | clearance ([1]; read-out: Clearance rate) [mL/min/kg] | SMILES
1 | ≤ 10 | > 200 | – | – | – | – | O=C(NO)c1cnc(Cn2ccc(C3(c4ccc(F)cc4)CCCO3)cc2=O)nc1 (centres unmarked) [Embodiment8]
2 | 50 to 200 | > 200 | – | – | – | – | O=C(NO)c1ccc(Cn2ccc(C3(c4ccc(F)cc4)CCCO3)cc2=O)cn1 (centres unmarked) [Embodiment9]
3 | ≤ 10 | 50 to 200 | – | – | – | – | O=C(NO)c1ccc(Cn2ccc(C3(c4ccc(F)cc4)CCCO3)c(F)c2=O)cc1 (centres unmarked) [Embodiment14]
4 | ≤ 10 | 50 to 200 | – | – | – | – | O=C(NO)c1ccc(Cn2ccc(C3(c4ccc(F)cc4F)CCCO3)cc2=O)cc1 (centres unmarked) [Embodiment6]
5 | ≤ 10 | > 200 | – | – | – | – | CC1(c2ccn(Cc3ccc(C(=O)NO)cc3)c(=O)c2)CCCO1 (centres unmarked) [Embodiment2]
6 | ≤ 10 | 50 to 200 | – | – | – | – | O=C(NO)c1ccc(Cn2ccc(C3(c4ccc(F)cc4)CCCO3)cc2=O)cc1 (single isomer, unassigned) [Embodiment4]
7 | 10 to 50 | > 200 | – | – | – | – | O=C(NO)c1ccc(Cn2ccc(C3(c4c(F)cc(F)cc4F)CCCO3)cc2=O)cc1 (centres unmarked) [Embodiment10]
8 | 10 to 50 | > 200 | – | – | – | – | O=C(NO)c1ccc(NC(=O)c2ccc(C3(c4ccc(F)cc4)CCCO3)cc2)cc1 (centres unmarked) [Embodiment25]
9 | 10 to 50 | > 200 | – | – | – | – | O=C(NO)c1ccc(Nc2ccc(C3(c4ccc(F)cc4)CCCO3)cc2)cc1 (centres unmarked) [Embodiment24]
10 | ≤ 10 | 50 to 200 | – | – | – | – | O=C(NO)c1ccc(Cn2ccc(C3(c4ccncc4)CCCO3)cc2=O)cc1 (centres unmarked) [Embodiment19]
11 | ≤ 10 | 50 to 200 | – | – | – | – | O=C(NO)c1ccc(Cn2ccc(C3(c4ccc(F)cc4)CCCCO3)cc2=O)cc1 (centres unmarked) [Embodiment15]
12 | ≤ 10 | 50 to 200 | – | – | – | – | O=C(NO)c1ccc(Cn2ccc(C3(c4ccc(F)cc4)CCCO3)cc2=O)cc1 (centres unmarked) [Embodiment3]
13 | ≤ 10 | 50 to 200 | – | – | – | – | O=C(NO)c1ccc(Cn2ccc(C3(c4ccc(F)cc4)OCCO3)cc2=O)cc1 [Embodiment16]
14 | ≤ 10 | > 200 | – | – | – | – | CC(C)C1(c2ccn(Cc3ccc(C(=O)NO)cc3)c(=O)c2)CCCO1 (centres unmarked) [Embodiment1]
15 | ≤ 10 | 50 to 200 | – | – | – | – | O=C(NO)c1ccc(Cn2ccc(C3(c4ccc(F)cc4)CCCO3)cc2=O)cc1 (single isomer, unassigned) [Embodiment5]
16 | ≤ 10 | 50 to 200 | – | – | – | – | O=C(NO)c1ccc(CNC(=O)c2ccc(C3(c4ccc(F)cc4)CCCO3)cc2)cc1 (single isomer, unassigned) [Embodiment21]
17 | ≤ 10 | 50 to 200 | 2.14 | 13.3 | 53.1 | 16 | O=C(NO)c1ccc(CNC(=O)c2ccc(C3(c4ccc(F)cc4)CCCO3)cn2)cc1 (centres unmarked) [Embodiment26]
18 | ≤ 10 | 50 to 200 | – | – | – | – | O=C(NO)c1ccc(Cn2ccc(C3(c4ccc(F)cc4)CCO3)cc2=O)cc1 (centres unmarked) [Embodiment12]
19 | ≤ 10 | 50 to 200 | – | – | – | – | O=C(NO)c1ccc(CNC(=O)c2ccc(C3(c4ccc(F)cc4)CCCO3)cc2)cc1 (centres unmarked) [Embodiment20]
20 | ≤ 10 | 50 to 200 | – | – | – | – | O=C(NO)c1ccc(Cn2ccc(C3(c4ccc(F)cc4)COCCO3)cc2=O)cc1 (centres unmarked) [Embodiment17]
21 | 10 to 50 | > 200 | – | – | – | – | O=C(NO)c1ccc(CNc2ccc(C3(c4ccc(F)cc4)CCCO3)cc2)cc1 (centres unmarked) [Embodiment23]
22 | ≤ 10 | > 200 | – | – | – | – | O=C(NO)c1ccc(Cn2ccc(C3(c4ccc(F)cc4)CCCO3)cc2=O)nc1 (centres unmarked) [Embodiment7]
23 | ≤ 10 | 50 to 200 | – | – | – | – | O=C(NO)c1ccc(Cn2cc(F)c(C3(c4ccc(F)cc4)CCCO3)cc2=O)cc1 (centres unmarked) [Embodiment11]
24 | ≤ 10 | 50 to 200 | – | – | – | – | O=C(NO)c1ccc(Cn2ccc(C3(c4ccccn4)CCCO3)cc2=O)cc1 (centres unmarked) [Embodiment18]
25 | ≤ 10 | 50 to 200 | – | – | – | – | O=C(NO)c1ccc(Cn2ccc(C3(c4ccc(F)cc4)CCO3)c(F)c2=O)cc1 (centres unmarked) [Embodiment13]
26 | ≤ 10 | 50 to 200 | – | – | – | – | O=C(NO)c1ccc(CNC(=O)c2ccc(C3(c4ccc(F)cc4)CCCO3)cc2)cc1 (single isomer, unassigned) [Embodiment22]

— patent US10745389B2, “HDAC6 selective inhibitors, preparation method therefor, and application thereof” (CSTONE PHARMACEUTICALS (SUZHOU) CO., LTD., priority 2017, dated 2020)
